In patent US8148391B2 (Cephalon, Inc., priority 2006, dated 2012):
Read-outs that look alike come from different tables or passages of the source.

What was measured:
[1] = target: T1, baculovirus-expressed ALK (Homo sapiens, UniProt Q9UM73); experiment: ALK Kinase Assay (ELISA-type, time-resolved fluorescence); format: biochemical
T1 construct: host or cells: baculovirus expression system
In short: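 Wells were coated with phospholipase C-γ at 10 μg/mL in Tris-buffered saline. Adding 30 ng/ml enzyme started the reaction, which ran at 37° C for 15 minutes before Eu-N1 PT66 antibody detection. Percent inhibition versus log10 concentration gave IC50 by variable-slope fit.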

[2] = target: T2, c-Met (cytoplasmic domain) (Homo sapiens, UniProt P08581); experiment: c-Met Kinase Assay (same methods as for ALK, with modifications); format: biochemical
T2 construct: 10 ng/mL c-Met (cytoplasmic domain, Invitrogen Corporation #PV3143); purchased Invitrogen Corporation PV3143
T2 sequence (P08581 956-1390 limits assumed): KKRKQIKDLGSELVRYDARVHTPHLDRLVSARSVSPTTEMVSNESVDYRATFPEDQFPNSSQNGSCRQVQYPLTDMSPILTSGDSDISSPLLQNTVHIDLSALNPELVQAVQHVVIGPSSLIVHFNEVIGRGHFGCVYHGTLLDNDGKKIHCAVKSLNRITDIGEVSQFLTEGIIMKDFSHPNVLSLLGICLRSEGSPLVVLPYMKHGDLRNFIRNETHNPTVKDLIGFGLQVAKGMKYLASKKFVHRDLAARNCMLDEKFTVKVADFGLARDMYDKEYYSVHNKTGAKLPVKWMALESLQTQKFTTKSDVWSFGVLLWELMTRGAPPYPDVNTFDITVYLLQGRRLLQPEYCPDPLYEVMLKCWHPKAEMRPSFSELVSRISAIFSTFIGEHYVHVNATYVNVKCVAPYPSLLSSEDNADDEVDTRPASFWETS
In short: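 Steps: coat wells with PLC-γ (10 μg/mL, Tris-buffered saline); add 10 ng/mL c-Met cytoplasmic domain to initiate; incubate 15 min, 37° C; detect phosphoproduct via Eu-N1 PT66 antibody.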

[3] = 1 μM ATP (Km level), read-out: ALK Activity (ALK Kinase Inhibition, IC50)
[4] = 1 μM ATP (Km level), read-out: cMet Activity (c-Met Kinase Inhibition, IC50)
[5] = ALK kinase inhibition, 1 μM ATP (Km level), read-out: ALK Activity
[6] = c-Met kinase inhibition, 1 μM ATP (Km level), read-out: cMet Activity
[7] = 1 μM ATP (Km level), 30 ng/ml ALK, 37° C., 15 minutes, read-out: ALK Activity (ALK kinase inhibition, IC50 class)
[8] = 1 μM ATP (Km level), 10 ng/mL c-Met, read-out: cMet Activity (c-Met kinase inhibition, IC50 class)
[9] = ALK kinase inhibition, 1 μM ATP, read-out: ALK Activity
[10] = c-Met kinase inhibition, 1 μM ATP, read-out: cMet Activity

T1 sequence (Q9UM73 19-1620): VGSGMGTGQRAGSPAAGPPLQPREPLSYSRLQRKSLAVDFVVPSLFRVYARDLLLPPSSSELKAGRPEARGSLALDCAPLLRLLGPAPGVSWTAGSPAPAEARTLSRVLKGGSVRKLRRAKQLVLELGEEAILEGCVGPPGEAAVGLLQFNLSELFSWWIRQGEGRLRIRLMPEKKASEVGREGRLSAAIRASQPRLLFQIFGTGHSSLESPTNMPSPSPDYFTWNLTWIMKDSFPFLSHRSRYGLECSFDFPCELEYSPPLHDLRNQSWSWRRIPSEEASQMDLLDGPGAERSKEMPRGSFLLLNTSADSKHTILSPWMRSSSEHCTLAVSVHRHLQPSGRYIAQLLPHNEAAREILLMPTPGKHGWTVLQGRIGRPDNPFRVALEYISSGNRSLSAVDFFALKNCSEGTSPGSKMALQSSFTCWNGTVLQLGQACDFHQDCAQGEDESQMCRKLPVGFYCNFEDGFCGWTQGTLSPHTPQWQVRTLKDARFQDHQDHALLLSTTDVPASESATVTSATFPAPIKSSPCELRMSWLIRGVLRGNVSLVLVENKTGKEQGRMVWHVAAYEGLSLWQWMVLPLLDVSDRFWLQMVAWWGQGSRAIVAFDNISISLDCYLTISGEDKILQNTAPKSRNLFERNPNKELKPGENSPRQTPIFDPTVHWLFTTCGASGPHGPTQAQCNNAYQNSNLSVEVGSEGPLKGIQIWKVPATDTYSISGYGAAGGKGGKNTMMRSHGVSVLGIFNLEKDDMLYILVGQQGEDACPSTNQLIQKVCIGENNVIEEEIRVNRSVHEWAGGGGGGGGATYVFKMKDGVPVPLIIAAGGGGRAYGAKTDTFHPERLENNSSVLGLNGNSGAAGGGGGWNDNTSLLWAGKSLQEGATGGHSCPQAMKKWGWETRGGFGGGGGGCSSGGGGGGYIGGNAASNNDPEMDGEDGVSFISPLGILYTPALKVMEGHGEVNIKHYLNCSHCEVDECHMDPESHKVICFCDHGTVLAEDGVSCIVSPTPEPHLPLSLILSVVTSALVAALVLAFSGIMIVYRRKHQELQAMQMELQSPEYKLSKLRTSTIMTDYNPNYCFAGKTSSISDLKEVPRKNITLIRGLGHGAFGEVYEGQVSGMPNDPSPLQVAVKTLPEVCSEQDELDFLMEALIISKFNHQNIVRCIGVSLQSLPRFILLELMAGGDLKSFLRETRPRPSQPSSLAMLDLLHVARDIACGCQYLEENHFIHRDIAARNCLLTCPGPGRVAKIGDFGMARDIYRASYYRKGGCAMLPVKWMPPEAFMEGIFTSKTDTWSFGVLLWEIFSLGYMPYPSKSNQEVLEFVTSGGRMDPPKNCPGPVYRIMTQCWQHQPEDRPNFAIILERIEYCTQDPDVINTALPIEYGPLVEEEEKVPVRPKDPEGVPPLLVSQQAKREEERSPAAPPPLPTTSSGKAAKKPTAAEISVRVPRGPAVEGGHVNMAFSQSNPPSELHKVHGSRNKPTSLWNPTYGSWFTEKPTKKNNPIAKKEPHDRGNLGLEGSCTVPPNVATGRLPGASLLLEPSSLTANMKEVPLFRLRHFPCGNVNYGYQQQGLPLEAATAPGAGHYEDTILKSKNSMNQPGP

CC1(C)CCCOc2c(Nc3ncc(Cl)c(N[C@@H]4[C@H](C(N)=O)[C@H]5C=C[C@@H]4C5)n3)cccc21 [Example 870, (1R,2R,3S,4S)-3-[5-Chloro-2-(5,5-dimethyl-2,3,4,5-tetrahydro-benzo[b]oxepin-9-ylamino)-pyrimidin-4-ylamino]-bicyclo[2.2.1]hept-5-ene-2-carboxylic acid amide]
IC50 [1, 3]: 100 to 1000 nM | IC50 [2, 4]: > 10000 nM

CCN(CC)CCN1CCNC(=O)c2ccc(Nc3ncc(Cl)c(Nc4ccccc4C(=O)NC)n3)cc21 [Example 415, 2-{5-Chloro-2-[1-(2-diethylamino-ethyl)-5-oxo-2,3,4,5-tetrahydro-1H-benzo[e][1,4]diazepin-8-ylamino]-pyrimidin-4-ylamino}-N-methylbenzamide]
IC50 [1, 5]: < 100 nM | IC50 [2, 6]: 100 to 1000 nM

NC(=O)c1cccc(F)c1Nc1nc(Nc2ccc3c(c2)NC(=O)CCC3)ncc1Cl [Example 1256, 2-[5-Chloro-2-(2-oxo-2,3,4,5-tetrahydro-1H-1-benzazepin-8-ylamino)-pyrimidin-4-ylamino]-3-fluoro-benzamide]
IC50 [1, 7]: 100 to 1000 nM | IC50 [2, 8]: 1000 to 10000 nM

CS(=O)(=O)N[C@@H]1CCCC[C@H]1Nc1nc(Nc2ccc3c(c2)CCC(=O)CC3)ncc1Cl [Example 174, N-{(1R,2R)-2-[5-Chloro-2-(7-oxo-6,7,8,9-tetrahydro-5H-benzocyclohepten-2-ylamino)-pyrimidin-4-ylamino]-cyclohexyl}-methanesulfonamide]
IC50 [1, 5]: < 100 nM | IC50 [2, 6]: 100 to 1000 nM

CS(=O)(=O)N[C@@H]1CCCC[C@H]1Nc1nc(Nc2ccc3c(c2)CNCCS3)ncc1Cl [Example 519, N-{(1R,2R)-2-[5-Chloro-2-(6,7,8,9-tetrahydro-5-thia-8-aza-benzocyclohepten-2-ylamino)-pyrimidin-4-ylamino]-cyclohexyl}-methanesulfonamide]
IC50 [1, 3]: < 100 nM | IC50 [2, 4]: 1000 to 10000 nM

CCN1C(=O)CCCc2c1ccc(Nc1ncc(Cl)c(N[C@@H]3[C@H](C(N)=O)[C@H]4C=C[C@@H]3C4)n1)c2OC [Example 132, (1R,2R,3S,4S)-3-[5-Chloro-2-(1-ethyl-6-methoxy-2-oxo-2,3,4,5-tetrahydro-1H-benzo[b]azepin-7-ylamino)-pyrimidin-4-ylamino]-bicyclo[2.2.1]hept-5-ene-2-carboxylic acid amide]
IC50 [1, 5]: 1000 to 10000 nM | IC50 [2, 6]: > 10000 nM

COc1cc2c(cc1Nc1ncc(Cl)c(Nc3ccccc3S(=O)(=O)C(C)C)n1)CCN(CC(C)(F)F)CC2 [Example 828, 5-Chloro-N*2*-[3-(2,2-difluoro-propyl)-8-methoxy-2,3,4,5-tetrahydro-1H-benzo[d]azepin-7-yl]-N*4*-[2-(propane-2-sulfonyl)-phenyl]-pyrimidine-2,4-diamine]
IC50 [1, 3]: < 100 nM | IC50 [2, 4]: > 10000 nM

CNC(=O)c1cccc(F)c1Nc1nc(Nc2ccc3c(c2)N(CCOC)C(=O)CCC3)ncc1Br [Example 1473, 2-{5-Bromo-2-[1-(2-methoxy-ethyl)-2-oxo-2,3,4,5-tetrahydro-1H-benzo[b]azepin-8-ylamino]-pyrimidin-4-ylamino}-3-fluoro-N-methyl-benzamide]
IC50 [1, 9]: 100 to 1000 nM | IC50 [2, 10]: < 100 nM

CNC(=O)c1ccccc1Nc1nc(Nc2ccc3c(c2)C2CN(S(C)(=O)=O)CC3O2)ncc1Cl (single isomer, unassigned) [Example 183, 2-[5-Chloro-2-(10-methanesulfonyl-12-oxa-10-aza-tricyclo[6.3.1.0*2,7*]dodeca-2(7),3,5-trien-4-ylamino)-pyrimidin-4-ylamino]-N-methyl-benzamide]
IC50 [1, 5]: < 100 nM | IC50 [2, 6]: < 100 nM

CCN1C(=O)CCC(C)(C)c2ccc(Nc3ncc(Cl)c(Nc4c(F)cccc4N(C)CCC#N)n3)cc21 [Example 1264, 3-({2-[5-Chloro-2-(1-ethyl-5,5-dimethyl-2-oxo-2,3,4,5-tetrahydro-1H-1-benzazepin-8-ylamino)-pyrimidin-4-ylamino]-3-fluoro-phenyl}-methyl-amino)-propionitrile]
IC50 [1, 7]: 100 to 1000 nM | IC50 [2, 8]: 1000 to 10000 nM

COCCN1C(=O)CCC(C)(C)c2ccc(Nc3ncc(Cl)c(Nc4c(F)cccc4OCC#N)n3)cc21 [Example 1521, (2-{5-Chloro-2-[1-(2-methoxy-ethyl)-5,5-dimethyl-2-oxo-2,3,4,5-tetrahydro-1H-1-benzazepin-8-ylamino]-pyrimidin-4-ylamino}-3-fluoro-phenoxy)-acetonitrile]
IC50 [1, 9]: < 100 nM | IC50 [2, 10]: < 100 nM

CNS(=O)(=O)c1ccccc1Nc1nc(Nc2ccc3c(c2)CCCC(=O)N3)ncc1Cl [Example 5, 2-[5-Chloro-2-(2-oxo-2,3,4,5-tetrahydro-1H-benzo[b]azepin-7-ylamino)-pyrimidin-4-ylamino]-N-methyl-benzenesulfonamide]
IC50 [1, 5]: < 100 nM | IC50 [2, 6]: < 100 nM

CNC(=O)c1cccc(Cl)c1Nc1nc(Nc2ccc3c(c2)CC(=O)N(C)CC3)ncc1Cl [Example 1817, 3-Chloro-2-[5-chloro-2-(3-methyl-4-oxo-2,3,4,5-tetrahydro-1H-benzo[d]azepin-7-ylamino)-pyrimidin-4-ylamino]-N-methylbenzamide]
IC50 [1, 9]: 1000 to 10000 nM | IC50 [2, 10]: 100 to 1000 nM

CNS(=O)(=O)c1ccccc1Nc1nc(Nc2ccc3c(c2)C2CCC3CN(C(C)C)C2)ncc1Cl (centres unmarked) [Example 274, 2-[5-Chloro-2-(10-isopropyl-10-aza-tricyclo[6.3.2.0*2,7*]trideca-2,4,6-trien-4-ylamino)-pyrimidin-4-ylamino]-N-methyl-benzenesulfonamide]
IC50 [1, 5]: < 100 nM | IC50 [2, 6]: < 100 nM

CCN1CCN(CC)c2cc(Nc3ncc(Cl)c(N[C@@H]4CCCC[C@H]4NS(C)(=O)=O)n3)ccc2C1=O [Example 424, N-{(1R,2R)-2-[5-Chloro-2-(1,4-diethyl-5-oxo-2,3,4,5-tetrahydro-1H-benzo[e][1,4]diazepin-8-ylamino)-pyrimidin-4-ylamino]-cyclohexyl}-methanesulfonamide]
IC50 [1, 5]: < 100 nM | IC50 [2, 6]: 1000 to 10000 nM

COc1cc(N2CCOCC2)ccc1Nc1nc(Nc2ccc3c(c2OC)CCC(N2CCOCC2)CC3)ncc1Cl (centres unmarked) [Example 894, 5-Chloro-N*4*-(2-methoxy-4-morpholin-4-yl-phenyl)-N*2*-(1-methoxy-7-morpholin-4-yl-6,7,8,9-tetrahydro-5H-benzocyclohepten-2-yl)-pyrimidine-2,4-diamine]
IC50 [1, 3]: < 100 nM | IC50 [2, 4]: > 10000 nM

COc1c(Nc2ncc(Cl)c(N[C@H]3[C@@H](C(N)=O)[C@@H]4C=C[C@H]3C4)n2)ccc2c1CCC(NCCO)CC2 (single isomer, unassigned) [Example 697]
IC50 [1, 3]: < 100 nM | IC50 [2, 4]: 1000 to 10000 nM

COc1cc2c(cc1Nc1ncc(Cl)c(Nc3ccc(N(C)C)cc3S(=O)(=O)C(C)C)n1)CCN(CC(=O)N(C)C)CC2 [Example 1187, 2-(7-{5-Chloro-4-[4-dimethylamino-2-(propane-2-sulfonyl)-phenylamino]-pyrimidin-2-ylamino}-8-methoxy-1,2,4,5-tetrahydro-benzo[d]azepin-3-yl)-N,N-dimethyl-acetamide]
IC50 [1, 7]: < 100 nM | IC50 [2, 8]: > 10000 nM

CNC(=O)c1ccsc1Nc1nc(Nc2ccc3c(c2)NC(=O)CCC3(C)C)ncc1Cl [Example 1486, 2-[5-Chloro-2-(5,5-dimethyl-2-oxo-2,3,4,5-tetrahydro-1H-benzo[b]azepin-8-ylamino)-pyrimidin-4-ylamino]-thiophene-3-carboxylic acid methyl amide]
IC50 [1, 9]: 1000 to 10000 nM | IC50 [2, 10]: 1000 to 10000 nM
